In ChEMBL document CHEMBL4251736, “Discovery of Novel Diarylpyrimidine Derivatives as Potent HIV-1 NNRTIs Targeting the "NNRTI Adjacent" Binding Site” (ACS Med Chem Lett, 2018):
Calls of active or inactive are those of the source. No cut-off for these calls is given here.

How the values were obtained:
[1] = system: Human immunodeficiency virus 1; assay: Antiviral activity against wild type HIV1 3B infected in human MT4 cells assessed as inhibition of virus-induced cytopathic effect after 5 days by MTT assay; assay type: functional, organism-based; settings: Human immunodeficiency virus 1, 3B, MT4, 120 h
[2] = Selectivity index, ratio of CC50 for human MT4 cells to EC50 for wild type HIV1 3B; assay type: toxicity; settings: read-out: Ratio CC50/EC50
[3] = target: Human immunodeficiency virus type 1 reverse transcriptase (Human immunodeficiency virus 1, UniProt Q72547); assay: Inhibition of recombinant wild type HIV1 reverse transcriptase assessed as decrease in biotin-dUTP incorporation using DIG-labeled dUTP/biotin-labeled dUTP and dTTP as template and viral nucleotides after 1 hr by ELISA
[4] = Cytotoxicity against human MT4 cells assessed as decrease in cell viability after 5 days by MTT assay; assay type: cell-based
[5] = system: Human immunodeficiency virus 2; assay: Antiviral activity against HIV2 ROD infected in human MT4 cells assessed as inhibition of virus-induced cytopathic effect after 5 days by MTT assay; assay type: functional, organism-based; settings: ISOLATE ROD
[6] = system: Human immunodeficiency virus 1; assay: Antiviral activity against HIV1 harboring reverse transcriptase K103N mutant infected in human MT4 cells assessed as inhibition of viral replication after 5 days by MTT assay; assay type: functional, organism-based; settings: Human immunodeficiency virus 1, MT4, 120 h
[7] = system: Human immunodeficiency virus 1; assay: Antiviral activity against HIV1 harboring reverse transcriptase E138K mutant infected in human MT4 cells assessed as inhibition of viral replication after 5 days by MTT assay; assay type: functional, organism-based; settings: for EC50: Human immunodeficiency virus 1, MT4, 120 h
[8] = system: Human immunodeficiency virus 1; assay: Fold resistance, ratio of EC50 for HIV1 harboring reverse transcriptase K103N mutant infected in human MT4 cells to EC50 for wild type HIV1 3B infected in human MT4 cells; assay type: functional
[9] = system: Human immunodeficiency virus 1; assay: Potency index, ratio of etravirine EC50 to compound EC50 for HIV1 harboring reverse transcriptase K103N mutant infected in human MT4 cells; assay type: functional
[10] = system: Human immunodeficiency virus 1; assay: Antiviral activity against HIV1 harboring reverse transcriptase F227L/V106A double mutant infected in human MT4 cells assessed as inhibition of viral replication after 5 days by MTT assay; assay type: functional, organism-based; settings: Human immunodeficiency virus 1, MT4, 120 h
[11] = system: Human immunodeficiency virus 1; assay: Antiviral activity against HIV1 harboring reverse transcriptase Y188L mutant infected in human MT4 cells assessed as inhibition of viral replication after 5 days by MTT assay; assay type: functional, organism-based
[12] = system: Human immunodeficiency virus 1; assay: Antiviral activity against HIV1 RES056 harboring reverse transcriptase K103N/Y181C double mutant infected in human MT4 cells assessed as inhibition of viral replication after 5 days by MTT assay; assay type: functional, organism-based; settings: Human immunodeficiency virus 1, RES056, MT4, 120 h
[13] = system: Human immunodeficiency virus 1; assay: Antiviral activity against HIV1 harboring reverse transcriptase Y181C mutant infected in human MT4 cells assessed as inhibition of viral replication after 5 days by MTT assay; assay type: functional, organism-based; settings: Human immunodeficiency virus 1, MT4, 120 h
[14] = system: Human immunodeficiency virus 1; assay: Potency index, ratio of etravirine EC50 to compound EC50 for wild type HIV1 3B infected in human MT4 cells; assay type: functional
[15] = system: Human immunodeficiency virus 1; assay: Antiviral activity against HIV1 harboring reverse transcriptase L100I mutant infected in human MT4 cells assessed as inhibition of viral replication after 5 days by MTT assay; assay type: functional, organism-based; settings: Human immunodeficiency virus 1, MT4, 120 h

| SMILES | EC50 [1] [nM] | selectivity ratio [2] | IC50 [3] [nM] | CC50 at 120 h [4] [nM] | inhibition [5] | EC50 [6] [nM] | EC50 [7] [nM] | Ratio EC50 [8] | Ratio EC50 [9] | inhibition [7] | EC50 [10] [nM] | inhibition [11] | EC50 [12] [nM] | EC50 [13] [nM] | Ratio EC50 [14] | EC50 [15] [nM] |
| --- | --- | --- | --- | --- | --- | --- | --- | --- | --- | --- | --- | --- | --- | --- | --- | --- |
| COC(=O)CS(=O)(=O)c1cnc(Nc2ccc(C#N)cc2)nc1Oc1c(C)cc(C#N)cc1C | 68.8 | 152 to 15400 | 13 to 863 | 5100 to 149000 | inactive |  |  |  |  |  |  |  |  |  |  |  |
| Cc1cc(C#N)cc(C)c1Oc1nc(Nc2ccc(C#N)cc2)ncc1SCC(=O)NC1CCN(C(=O)OC(C)(C)C)CC1 | < 10 | 152 to 15400 | 13 to 863 | 5100 to 149000 | inactive | 1.4 to 44.9 | 6 to 157 | 0.4 - 1.9 |  |  |  |  |  |  |  |  |
| Cc1cc(C#N)cc(C)c1Oc1nc(Nc2ccc(C#N)cc2)ncc1SCC(=O)NCc1ccc(O)cc1 | < 10 | 152 to 15400 | 13 to 863 | 5100 to 149000 | inactive | 1.4 to 8.3 | 6 to 34.7 |  |  |  |  |  |  |  |  |  |
| Cc1cc(C#N)cc(C)c1Oc1nc(Nc2ccc(C#N)cc2)ncc1SCC(=O)N1CCSCC1 | 38.3 | 152 to 15400 | 13 to 863 | 5100 to 149000 | inactive | 1.4 to 44.9 | 6 to 157 | 0.4 - 1.9 |  |  |  |  |  |  |  |  |
| O=C1Nc2ccc(Cl)cc2[C@@](C#CC2CC2)(C(F)(F)F)O1 [EFAVIRENZ] |  |  |  |  |  | 81 |  |  |  |  |  |  |  |  |  |  |
| C=CCNC(=O)CSc1cnc(Nc2ccc(C#N)cc2)nc1Oc1c(C)cc(C#N)cc1C | 2.4 to 3.8 | 152 to 15400 | 13 to 863 | 5100 to 149000 | inactive | 1.4 to 8.3 | 6 to 34.7 |  | 1.3 - 2.3 |  |  |  |  |  |  |  |
| Cc1ccnc2c1NC(=O)c1cccnc1N2C1CC1 |  |  |  |  |  |  |  |  |  | Active |  |  |  |  |  |  |
| Cc1cc(C#N)cc(C)c1Oc1nc(Nc2ccc(C#N)cc2)ncc1SCC(=O)NC1CC1 | 2.4 | 152 to 15400 | 21 | 5100 to 149000 | inactive | 1.4 to 8.3 | 6 to 34.7 |  | 1.3 - 2.3 |  | > 100 | Active | > 100 | 11.1 to 13.8 | 1.6 |  |
| Cc1cc(C#N)cc(C)c1Oc1nc(Nc2ccc(C#N)cc2)ncc1SCC(=O)NCCN1CCOCC1 | 2.6 to 6.2 | 152 to 15400 | 13 to 863 | 5100 to 149000 | inactive | 1.4 to 8.3 | 6 to 34.7 |  | 1.3 - 2.3 |  |  |  |  |  |  |  |
| COCCNC(=O)CSc1cnc(Nc2ccc(C#N)cc2)nc1Oc1c(C)cc(C#N)cc1C | 3.8 | 152 to 15400 | 26 | 5100 to 149000 | inactive | 1.4 to 8.3 | 6 to 34.7 |  | 1.3 - 2.3 |  | > 100 | Active | > 100 |  |  |  |
| COC(=O)CCS(=O)(=O)c1cnc(Nc2ccc(C#N)cc2)nc1Oc1c(C)cc(C#N)cc1C | 1560 | 9 | 13 to 863 | 5100 to 149000 | inactive |  |  |  |  |  |  |  |  |  |  |  |
| Cc1cc(C#N)cc(C)c1Oc1nc(Nc2ccc(C#N)cc2)ncc1SCC(=O)N1CC[C@H](NC(=O)OC(C)(C)C)C1 | 33.9 | 152 to 15400 | 13 to 863 | 5100 to 149000 | inactive |  |  |  |  |  |  |  |  |  |  |  |
| COC(=O)CSc1cnc(Nc2ccc(C#N)cc2)nc1Oc1c(C)cc(C#N)cc1C | 65.9 | 152 to 15400 | 13 to 863 | 5100 to 149000 | inactive |  |  |  |  |  |  |  |  |  |  |  |
| Cc1cc(C#N)cc(C)c1Oc1nc(Nc2ccc(C#N)cc2)ncc1SCC(=O)NCCN1CCN(C(=O)OC(C)(C)C)CC1 | 32.6 | 152 to 15400 | 13 to 863 | 5100 to 149000 | inactive | 1.4 to 44.9 | 6 to 157 | 0.4 - 1.9 |  |  |  |  |  |  |  |  |
| Cc1cc(C#N)cc(C)c1Oc1nc(Nc2ccc(C#N)cc2)ncc1SCC(=O)N1CCN(C(=O)OC(C)(C)C)CC1 | 88.5 | 152 to 15400 | 13 to 863 | 5100 to 149000 | inactive |  |  |  |  |  |  |  |  |  |  |  |
| Cc1cc(C#N)cc(C)c1Oc1nc(Nc2ccc(C#N)cc2)ncc1SCC(=O)C(=O)O | 2.4 to 216 | 152 to 15400 | 13 to 863 | 5100 to 149000 | inactive |  |  |  |  |  |  |  |  |  |  |  |
| C#CCNC(=O)CSc1cnc(Nc2ccc(C#N)cc2)nc1Oc1c(C)cc(C#N)cc1C | 2.4 | 152 to 15400 | 23 | 5100 to 149000 | inactive | 1.4 to 8.3 | 6 to 34.7 |  | 1.3 - 2.3 |  | > 100 | Active | > 100 | 11.1 to 13.8 | 1.6 | 7.7 |
| Cc1cc(C#N)cc(C)c1Oc1nc(Nc2ccc(C#N)cc2)ncc1SCC(=O)NCC1CC1 | 3.8 | 152 to 15400 | 13 to 863 | 5100 to 149000 | inactive |  |  |  |  |  |  |  |  |  |  |  |
| Cc1cc(C#N)cc(C)c1Oc1nc(Nc2ccc(C#N)cc2)ncc1SCC(=O)Nc1ccc(S(C)(=O)=O)cc1 | < 10 | 152 to 15400 | 13 to 863 | 5100 to 149000 | inactive | 1.4 to 8.3 | 6 to 34.7 |  |  |  |  |  |  |  |  |  |
| Cc1cn([C@H]2C[C@H](N=[N+]=[N-])[C@@H](CO)O2)c(=O)[nH]c1=O [ZIDOVUDINE] |  |  |  |  |  |  | 38.6 |  |  |  |  |  |  | 14.1 |  | 8.3 |
| Cc1cc(C#N)cc(C)c1Oc1nc(Nc2ccc(C#N)cc2)ncc1SCC(N)=O | 2.4 to 216 | 152 to 15400 | 13 to 863 | 5100 to 149000 | inactive | 1.4 to 44.9 | 6 to 34.7 | 0.4 - 1.9 |  |  |  |  |  |  |  |  |
| COC(=O)CCSc1cnc(Nc2ccc(C#N)cc2)nc1Oc1c(C)cc(C#N)cc1C | 60.2 | 152 to 15400 | 13 to 863 | 5100 to 149000 | inactive |  |  |  |  |  |  |  |  |  |  |  |
| Cc1cc(C#N)cc(C)c1Oc1nc(Nc2ccc(C#N)cc2)ncc1SCC(=O)NCC1CCCO1 (stereo not drawn) | < 10 | 152 to 15400 | 13 to 863 | 5100 to 149000 | inactive | 1.4 to 8.3 | 6 to 34.7 |  |  |  |  |  |  |  |  |  |
